Measured values published in patent US20150218652A1, “METHODS FOR DIAGNOSIS AND TREATMENT OF CANCER” (THE REGENTS OF THE UNVERSITY OF COLORADO, a body corporate, priority 2012, published 2015).
Read-outs that look alike come from different tables or passages of the source.

Assays:
[1] = test system: Ba/F3 cells expressing NTRK1 fusions; assay: MTS proliferation assay of Ba/F3 cells expressing NTRK1 fusions; format: cell-based; conditions: n=5, similar to Ba/F3 cells expressing ALK or ROS1 fusion constructs
From the text: (§1) The half maximal inhibitory concentration (IC50) values are listed (nM).

[2] = test system: KM12 cells harboring the TPM3-NTRK1 fusion; assay: MTS proliferation assay of KM12 cells; format: cell-based
Procedure: KM12 cells harboring the TPM3-NTRK1 fusion were lysed following 5 h treatment with the indicated doses of inhibitors and subject to immunoblot analysis (n=3).
Proliferation of KM12 cells treated with the indicated drugs and doses were assayed for cell proliferation by MTS assay.

TRKA [3] = target: T1, TRKA (Homo sapiens, UniProt P04629); assay: Immunoblot of 293T cell lysates expressing TRKA-HA: TRKA and downstream signaling; format: cell-based; conditions: 293T cells, 1 μM, 5 hours, presence or absence of NGF
T1 construct: the inventors expressed full length TRKA in 293T cells; expressed in transfected cells; host or cells: 293T cells, transient transfection of pCDH-MCS1-EF1-puro carrying NTRK1-HA
T1 sequence (P04629 33-796): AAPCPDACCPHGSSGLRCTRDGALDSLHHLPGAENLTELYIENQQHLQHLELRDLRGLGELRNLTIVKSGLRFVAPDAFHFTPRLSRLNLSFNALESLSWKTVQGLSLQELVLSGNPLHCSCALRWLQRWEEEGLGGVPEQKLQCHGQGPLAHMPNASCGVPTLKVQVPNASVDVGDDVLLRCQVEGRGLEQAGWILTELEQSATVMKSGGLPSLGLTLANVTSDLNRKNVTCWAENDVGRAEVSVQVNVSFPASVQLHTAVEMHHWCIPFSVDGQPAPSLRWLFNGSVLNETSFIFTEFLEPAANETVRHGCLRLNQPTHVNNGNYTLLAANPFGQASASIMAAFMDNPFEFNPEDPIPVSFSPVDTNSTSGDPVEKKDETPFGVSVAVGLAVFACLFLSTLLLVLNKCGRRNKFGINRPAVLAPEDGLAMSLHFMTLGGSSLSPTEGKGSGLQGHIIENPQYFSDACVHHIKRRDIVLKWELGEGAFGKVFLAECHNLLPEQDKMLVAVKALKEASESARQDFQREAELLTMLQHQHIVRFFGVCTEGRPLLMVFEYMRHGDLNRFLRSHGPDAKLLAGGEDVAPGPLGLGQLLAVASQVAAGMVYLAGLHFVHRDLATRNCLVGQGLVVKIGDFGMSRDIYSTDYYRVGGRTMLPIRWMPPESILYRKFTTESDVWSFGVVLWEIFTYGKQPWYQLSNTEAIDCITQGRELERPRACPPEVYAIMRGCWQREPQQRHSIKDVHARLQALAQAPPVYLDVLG

ROS1 gene fusions = conditions: lung cancer patients harboring ROS1 gene fusions; cited from earlier work
[4] = test system: Ba/F3 cells expressing NTRK1-MPRIP; assay: MTS proliferation assay of Ba/F3 cells expressing NTRK1-MPRIP; format: cell-based; conditions: n=5
From the text: as §1

[5] = test system: CUTO-3 cells harboring the NTRK1-MPRIP gene fusion; assay: Immunoblot analysis of CUTO-3 cells; format: cell-based
From the text: Colorado University Thoracic Oncology (CUTO) 3 cells were derived from a pleural effusion from the index patient harboring the NTRK1-MPRIP gene fusion.

TRKA [6] = target: T1, TRKA; assay: Immunoprecipitation of TRKA-HA from 293T cells and anti-phosphotyrosine immunoblot; format: cell-based; conditions: 293T cells, 1 μM, 5 hours, vs DMSO control

| SMILES | inhibition of cell proliferation of Ba/F3 expressing NTRK1 fusions [1] | inhibition of proliferation of KM12 cells ([2]; MTS assay) | phosphorylation of ERK (TRKA [3]) | phosphorylation of TRKA (phosphotyrosine 490, 674, 675) (TRKA [3]) | patient response (ROS1 gene fusions) | inhibition of proliferation [4] | inhibition of pERK [5] | inhibition of pTRKA [5] | inhibition of proliferation of KM12 cells [2] | Phosphorylation of TRKA (anti-phosphotyrosine 4G10 after HA immunoprecipitation) (TRKA [6]) | phosphorylation of AKT (TRKA [3]) |
| --- | --- | --- | --- | --- | --- | --- | --- | --- | --- | --- | --- |
| C[C@@H](Oc1cc(-c2cnn(C3CCNCC3)c2)cnc1N)c1c(Cl)ccc(F)c1Cl [crizotinib] | inhibition | inhibited | decreased phosphorylation | decreased phosphorylation | respond |  |  |  |  |  |  |
| O=C(Nc1cnn2ccc(N3CCC[C@@H]3c3cc(F)ccc3F)nc12)N1CC[C@H](O)C1 [ARRY-470] |  |  |  |  |  | inhibition of proliferation | inhibition | inhibition | inhibited |  |  |
| C[C@]12O[C@H](C[C@]1(O)CO)n1c3ccccc3c3c4c(c5c6ccccc6n2c5c31)CNC4=O [CEP-701] |  | inhibited | inhibited phosphorylation | inhibited phosphorylation |  | inhibition of proliferation |  |  |  | significantly reduced | inhibited phosphorylation |
